pEC50, pIC50: −log10 of the molar value. Read-outs that look alike come from different tables or passages of the source.
Columns and labels:
[1] = tested on: PDE4H (HARBS); conditions: cited from earlier work; for PDE4H/PDE4L ratio: references [24-26]
[2] = tested on: PDE4H (HARBS); assay: Literature binding to brain HARBS (PDE4H); conditions: worked out from the cited EC50 values
From the text: Recently, in United States of American and Europe, the selective inhibitors for the PDE4 are considered as the important materials for treating asthma or chronic obstructive pulmonary disease (COPD). In addition, the clinical trials thereof are considered safe and effective, whereas they have side effects, such as vomiting, gastric hypersecretion, etc.. […] In the brain, there are two binding sites for rolipram, which are high (HARBS) and low affinity rolipram binding sites (LARBS), while in the periphery of bronchi and lung there exist only LARBS. Generally, the anti-inflammatory and the bronchodilatory effects of rolipram are considered as its ability to bind with LARBS [21]. […] Therefore, the pharmaceutical factories in the world are trying to develop drugs with high PDE4H/PDE4L ratio for separating the side effects from the main therapeutic effects, while some progresses are obtained. […] Although the respective PDE4H/PDE4L ratios of roflumilast and cilomilast are much higher than that of rolipram, they are not good enough. […] It seems having a good perspective.

[3] = tested on: PDE4L (LARBS); conditions: reference [23]; read-out: EC50 for binding PDE4L; cited from earlier work
[4] = biological target: T1, high affinity rolipram binding sites (HARBS, PDE4H); assay: Binding to particulate HARBS of whole brain, displacement of [3H]-rolipram (Assay II); parameters: species or system guinea pig; conditions: 2 nM [3H]-rolipram, guinea pig whole brain particulates, FIG. 2; read-out: IC50 for displacement of [3H]-rolipram from HARBS
T1 construct: IC50 for displacement of [3H]-rolipram from HARBS; other: 300 μM, guinea pig, preliminary experimental data; other: guinea pig whole brain particulates; over 300 μM not available due
Procedure: The binding experiments are carried on basis of the methods of Schneider et al. and Zhao et al. with a small modification. Under a protocol approved by the Animal Care and Use Committee of Taipei Medical University, five male guinea pigs (Hartley), weighing 500-600 g, were anesthetized. The whole brains taken therefrom were homogenized with in 10 volumes of cold medium (pH 6.5) containing 20 mM Bis-Tris, 2 mM benzamidine, 2 mM EDTA, 50 mM sodium chloride, 0.1 mM phenylmethanesulfonyl fluoride (PMSF), and 1 mM dithiothreitol. At 4° C., the homogenate was centrifuged at 170 g for 15 min for removing blood vessels and connective tissues, and the supernatant thereof was then re-centrifuged at 40,000 g for 30 min for separating the particulates from the cytosol of cells.
After incubation, the reaction was stopped by transferring the reaction vessel to a bath of crashed ice. Then the reaction mixture was filtered through a punched glass fiber filter (Whatman GF/B) placed in a mini funnel, which was adopted to a 1.5 ml of Eppendorff's tube for collecting the filtrate in the mini centrifuge at 1000 rpm for 10 seconds. By the same way (centrifugation), it is further washed with 0.3 ml reaction buffer each for three times. The Whatman GF/B filter was mixed with 2 ml of cocktail and counted by the β-scintillation counter (Backman, Fullerton, Calif., USA) for counting the radioactivity thereof.

Structure (SMILES)	PDE4H/PDE4L ratio [1]	pEC50 ([1]; reference [23], read-out: EC50 for binding PDE4H)	PDE4H/PDE4L ratio [2]	pEC50 [3]	pIC50 [4]
COc1ccc([C@]2(C#N)CC[C@@H](C(=O)O)CC2)cc1OC1CCCC1 [cilomilast]	about 1				
O=C(Nc1c(Cl)cncc1Cl)c1ccc(OC(F)F)c(OCC2CC2)c1 [roflumilast]	3				
COc1ccc(C2CNC(=O)C2)cc1OC1CCCC1 (stereo not drawn) [rolipram]		~8.70	0.002	~6.00	8.13
